The source of these data is ChEMBL document CHEMBL4390688, “Accelerating the discovery of DGAT1 inhibitors through the application of parallel medicinal chemistry (PMC)” (Bioorg Med Chem Lett, 2019).

Series [1] is described as follows: Cmax in Beagle dog at 1 mg/kg, iv or 2 mg/kg, po. Conditions: in vivo. The class given is ADME, organism-based, Canis lupus familiaris.
A short description of series [2]: Oral bioavailability in Beagle dog at 2 mg/kg. Particulars: in vivo. The class given is ADME, organism-based, Canis lupus familiaris.
Series [3] is described as follows: Dose normalized AUC in Sprague-Dawley rat at 1 mg/kg, iv or 2 mg/kg, po. The class given is ADME, organism-based. Conditions: in vivo.
The nature of series [4]: Tmax in Beagle dog at 1 mg/kg, iv or 2 mg/kg, po. The class given is ADME, organism-based, Canis lupus familiaris. Particulars: in vivo.
Series [5] concerns the target Voltage-gated inwardly rectifying potassium channel KCNH2 (Homo sapiens, UniProt Q12809). Nature of the series: Inhibition of human ERG.
A short description of series [6]: Tmax in Sprague-Dawley rat at 1 mg/kg, iv or 2 mg/kg, po. The class given is ADME, organism-based. Particulars: in vivo.
Series [7] is described as follows: Clearance in Sprague-Dawley rat at 1 mg/kg, iv and 2 mg/kg, po. The class given is ADME, organism-based. Conditions: in vivo.
Series [8] in a line: Volume of distribution at steady state in Beagle dog at 1 mg/kg, iv or 2 mg/kg, po. The class given is ADME, organism-based, Canis lupus familiaris. Conditions: in vivo, read-out: Vdss.
Series [9] concerns the target T1, Diacylglycerol O-acyltransferase 1 (Homo sapiens, UniProt O75907).
T1 sequence (O75907 whole entry): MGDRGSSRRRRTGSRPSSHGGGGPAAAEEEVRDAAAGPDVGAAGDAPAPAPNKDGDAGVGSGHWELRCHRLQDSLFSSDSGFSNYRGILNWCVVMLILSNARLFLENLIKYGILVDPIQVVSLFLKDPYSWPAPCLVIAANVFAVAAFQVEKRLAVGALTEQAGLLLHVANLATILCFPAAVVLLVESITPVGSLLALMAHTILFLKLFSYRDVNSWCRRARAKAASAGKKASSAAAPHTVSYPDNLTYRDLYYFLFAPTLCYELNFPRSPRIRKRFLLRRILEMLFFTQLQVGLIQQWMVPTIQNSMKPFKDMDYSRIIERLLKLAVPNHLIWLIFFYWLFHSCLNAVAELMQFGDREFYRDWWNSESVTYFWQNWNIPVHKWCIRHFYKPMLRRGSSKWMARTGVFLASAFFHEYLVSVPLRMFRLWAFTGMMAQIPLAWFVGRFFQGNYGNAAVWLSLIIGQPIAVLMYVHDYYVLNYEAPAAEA
Description: Inhibition of human DGAT1

The target of series [10] is T2, Diacylglycerol O-acyltransferase 1 (Mus musculus, UniProt Q9Z2A7).
T2 sequence (Q9Z2A7 whole entry): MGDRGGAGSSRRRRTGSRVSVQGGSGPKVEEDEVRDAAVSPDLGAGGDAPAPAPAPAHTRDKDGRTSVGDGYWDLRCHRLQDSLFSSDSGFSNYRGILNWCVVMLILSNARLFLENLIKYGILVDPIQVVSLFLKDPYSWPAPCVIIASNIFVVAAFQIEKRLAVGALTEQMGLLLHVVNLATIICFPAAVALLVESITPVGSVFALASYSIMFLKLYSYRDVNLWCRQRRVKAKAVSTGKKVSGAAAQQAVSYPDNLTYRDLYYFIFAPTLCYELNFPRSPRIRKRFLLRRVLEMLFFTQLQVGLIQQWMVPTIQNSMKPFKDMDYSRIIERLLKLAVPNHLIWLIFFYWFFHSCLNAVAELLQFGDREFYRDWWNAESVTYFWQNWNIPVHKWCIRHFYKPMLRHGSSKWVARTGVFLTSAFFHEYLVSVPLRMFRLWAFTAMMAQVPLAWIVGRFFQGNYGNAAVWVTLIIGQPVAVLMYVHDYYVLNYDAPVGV
Description: Inhibition of mouse DGAT1

A short description of series [11]: Half life in Sprague-Dawley rat at 1 mg/kg, iv or 2 mg/kg, po. The class given is ADME, organism-based. Particulars: in vivo.
The target in the next series is Adenosine receptor A2a (Homo sapiens, UniProt P29274). Nature of the series: Activity against human A2AR assessed as inhibition of cAMP accumulation by cAMP functional assay.
Adenosine receptor A2a, sequence (P29274 whole entry): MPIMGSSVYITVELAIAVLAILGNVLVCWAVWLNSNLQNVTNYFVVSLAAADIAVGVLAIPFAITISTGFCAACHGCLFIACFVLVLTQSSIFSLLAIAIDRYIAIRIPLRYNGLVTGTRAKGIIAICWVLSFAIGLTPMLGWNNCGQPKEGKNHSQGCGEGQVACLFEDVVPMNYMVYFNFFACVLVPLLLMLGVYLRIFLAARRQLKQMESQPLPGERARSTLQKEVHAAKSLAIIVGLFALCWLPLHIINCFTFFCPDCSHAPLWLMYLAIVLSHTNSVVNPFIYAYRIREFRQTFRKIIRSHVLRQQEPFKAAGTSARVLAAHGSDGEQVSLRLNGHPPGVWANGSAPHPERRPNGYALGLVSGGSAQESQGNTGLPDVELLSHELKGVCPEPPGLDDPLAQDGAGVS
The nature of series [12]: Mutagenicity in Salmonella typhimurium […] up to 30 to 5000 ug/plate by Ames test. The class given is toxicity. Particulars: salmonella enterica subsp. enterica serovar typhimurium. In general terms: In the Ames test, an excess of revertant colonies over the control signals mutagenicity.
The nature of series [13]: Volume of distribution at steady state in Sprague-Dawley rat at 1 mg/kg, iv or 2 mg/kg, po. The class given is ADME, organism-based. Conditions: in vivo, read-out: Vdss.
The next series relates to Mus musculus. The series is described as follows: Reduction in lipid excursion in mouse at 3 mg/kg, po administered as single dose measured after 18 hrs by lipid tolerance test relative to control. The class given is functional. Details: scale not given: the % may be the effect or the level left.
A further series deals with Canis familiaris. Nature of the series: Reduction in lipid excursion in dog at 1 mg/kg, po measured by lipid tolerance test relative to control. The class given is functional, Canis lupus familiaris. Details: scale not given: the % may be the effect or the level left.
Series [14] can be described thus: Oral bioavailability in Sprague-Dawley rat at 2 mg/kg. The class given is ADME, organism-based. Conditions: in vivo.
The nature of series [15]: Dose normalized AUC in Beagle dog at 1 mg/kg, iv or 2 mg/kg, po. The class given is ADME, organism-based, Canis lupus familiaris. Conditions: in vivo.
Series [16] has as its target T3, Sterol O-acyltransferase 1 (Homo sapiens, UniProt P35610).
T3 sequence (P35610 whole entry): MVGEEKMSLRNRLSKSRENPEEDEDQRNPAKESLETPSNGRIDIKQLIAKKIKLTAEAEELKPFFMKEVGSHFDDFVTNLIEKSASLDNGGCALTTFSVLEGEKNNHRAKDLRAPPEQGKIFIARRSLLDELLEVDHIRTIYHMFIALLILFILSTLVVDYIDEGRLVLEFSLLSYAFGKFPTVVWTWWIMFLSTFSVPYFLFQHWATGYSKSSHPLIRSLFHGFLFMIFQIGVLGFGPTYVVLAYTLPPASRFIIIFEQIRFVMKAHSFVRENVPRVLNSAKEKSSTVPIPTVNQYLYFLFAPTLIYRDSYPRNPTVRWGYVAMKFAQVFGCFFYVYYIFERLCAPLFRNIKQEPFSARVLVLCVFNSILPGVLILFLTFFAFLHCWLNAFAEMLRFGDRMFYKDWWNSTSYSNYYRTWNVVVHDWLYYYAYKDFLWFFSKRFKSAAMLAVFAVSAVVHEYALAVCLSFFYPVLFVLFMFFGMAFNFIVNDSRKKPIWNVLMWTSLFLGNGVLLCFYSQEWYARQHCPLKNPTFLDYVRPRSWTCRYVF
Description: Inhibition of human ACAT1

The nature of series [17]: Clearance in Beagle dog at 1 mg/kg, iv or 2 mg/kg, po. Conditions: in vivo. The class given is ADME, organism-based, Canis lupus familiaris.
Series [18] can be described thus: Mutagenicity in Salmonella typhimurium TA100 up to 30 to 5000 ug/plate by Ames test. The class given is toxicity. Particulars: salmonella enterica subsp. enterica serovar typhimurium.
A short description of series [19]: Mutagenicity in Salmonella typhimurium TA98 up to 30 to 5000 ug/plate by Ames test. The class given is toxicity. Conditions: salmonella enterica subsp. enterica serovar typhimurium.
Series [20] can be described thus: Half life in Beagle dog at 1 mg/kg, iv or 2 mg/kg, po. The class given is ADME, organism-based, Canis lupus familiaris. Particulars: in vivo.
Series [21] can be described thus: Cmax in Sprague-Dawley rat at 1 mg/kg, iv or 2 mg/kg, po. The class given is ADME, organism-based. Particulars: in vivo.

SMILES strings stand for the structures.

Voltage-gated inwardly rectifying potassium channel KCNH2, sequence (Q12809 whole entry): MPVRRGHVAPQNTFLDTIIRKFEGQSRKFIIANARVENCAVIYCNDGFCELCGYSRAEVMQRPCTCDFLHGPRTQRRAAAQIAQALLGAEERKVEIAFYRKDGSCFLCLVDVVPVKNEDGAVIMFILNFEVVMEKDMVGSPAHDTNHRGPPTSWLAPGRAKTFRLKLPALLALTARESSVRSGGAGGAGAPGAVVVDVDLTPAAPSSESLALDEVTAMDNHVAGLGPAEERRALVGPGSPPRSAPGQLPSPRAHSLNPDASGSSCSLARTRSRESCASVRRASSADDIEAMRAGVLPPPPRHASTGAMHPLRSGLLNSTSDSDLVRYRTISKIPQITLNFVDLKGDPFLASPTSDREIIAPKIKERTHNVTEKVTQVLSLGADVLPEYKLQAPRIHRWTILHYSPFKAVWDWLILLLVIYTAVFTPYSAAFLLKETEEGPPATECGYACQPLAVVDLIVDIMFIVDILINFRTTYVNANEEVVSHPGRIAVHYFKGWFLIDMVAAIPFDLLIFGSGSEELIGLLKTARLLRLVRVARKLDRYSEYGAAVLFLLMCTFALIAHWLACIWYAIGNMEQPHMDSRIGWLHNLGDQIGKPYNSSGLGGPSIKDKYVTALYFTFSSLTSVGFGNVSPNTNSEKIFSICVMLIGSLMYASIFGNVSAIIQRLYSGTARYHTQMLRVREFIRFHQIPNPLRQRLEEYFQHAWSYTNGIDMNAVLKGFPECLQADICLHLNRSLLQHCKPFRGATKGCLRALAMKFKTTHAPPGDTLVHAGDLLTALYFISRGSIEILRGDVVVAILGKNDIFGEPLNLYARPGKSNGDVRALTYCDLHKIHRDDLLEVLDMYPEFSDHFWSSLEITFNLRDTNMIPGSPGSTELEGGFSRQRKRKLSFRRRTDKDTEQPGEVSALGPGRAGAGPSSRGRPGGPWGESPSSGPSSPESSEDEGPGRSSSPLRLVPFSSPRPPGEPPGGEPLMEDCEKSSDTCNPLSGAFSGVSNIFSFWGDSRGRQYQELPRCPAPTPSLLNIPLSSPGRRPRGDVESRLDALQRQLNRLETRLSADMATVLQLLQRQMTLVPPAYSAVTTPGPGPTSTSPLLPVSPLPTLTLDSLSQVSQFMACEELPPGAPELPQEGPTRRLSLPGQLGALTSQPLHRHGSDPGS

What is called Cmax is the highest concentration seen after dosing. The bioavailability is the share of a dose that reaches the circulation, judged against a reference dose that is usually intravenous. Broadly, the Tmax is the time from dosing to the highest level. As a reminder, the Ki is the dissociation constant of the complex between target and ligand, obtained from inhibition or displacement. For orientation: IC50 means the point on the concentration scale where inhibition reaches its midpoint. A word on the half-life: it is how long it takes for the measured level to halve. As for `O=C(O)C[C@H]1CC[C@H](OC2CCN(c3ccc(-c4nc5cc(F)c(F)cc5[nH]4)cn3)CC2)CC1`, the Cmax in series [1] was determined as 2400 nM; in series [21], 230 nM. Further, the bioavailability is 40% in series [2] and 17% in series [14]. Also, the results for the AUC/dose in series [3] and in [15] were 0.3 µM·h/mg/kg and 4.1 µM·h/mg/kg, respectively. Moreover, the Tmax came to 0.5 h in [4] and 1 h in series [6]. In series [5], affinity was put at a Ki of 40.7 µM. Further, the clearance is 17 mL/min/kg in series [7] and 3.4 mL/min/kg in [17]. Besides, the Vd in series [8] amounted to 0.81 L/kg; in series [13], 1.08 L/kg. Moreover, the IC50 in series [9] is 0.0065 µM; in series [10], 0.046 µM; at Adenosine receptor A2a, 3.48 µM; in series [16], > 10 µM. Besides, the values for the half-life in series [11] and in series [20] were 1 h and 3.2 h, respectively. For the same compound, the Activity entry in series [12] is given as “Non-Toxic”; with Mus musculus, 84%; in the series on Canis familiaris it was 100%; in series [18] it was “Non-Toxic”; in series [19], “Non-Toxic”.
